Assay results: patent publication US20220313581A1, “NOVEL COMPOUNDS FOR SKIN LIGHTENING” (Conopco, Inc. , d/b/a UNILEVER, priority 2019, published 2022)

System: Melanoderm human tissue (MEL-300-B, Mattek Corp.)
Assay: Melanoderm assay (melanin quantitation)
Format: cell-based
Details: for Melanin content / skin lightening effect (in words): melanoderm treatment, 10 uM, compared to vehicle control; for Melanin (μg/μg protein): test compound 10 uM, 12 d dosing, melanin normalized to protein, mean +/− standard deviation, n = 3, vehicle control 0.240 +/− 0.020
Method: Control compounds consisted of a negative control (ultrapure water), vehicle control [Dimethylsulfoxide (DMSO) in ultrapure water—final concentration of 0.1%] and positive control (2% kojic acid in ultrapure water—final concentration of 700 uM). Test compounds where prepared in DMSO at 10 mM concentrations and diluted with EPI-100-LLMM media (Mattek Corp.) to a final concentration of 10 uM. Melanoderm human tissue (MEL-300-B, Mattek Corp.) was equilibrated with EPI-100-NMM media for 24 h, followed by equilibration with EPI-100-LLMM media for 48 h prior to treatment with test compounds and controls. Dosing and re-feeding of melanoderms with controls and test compounds continued for a total of 12 d following standard protocols and the melanoderms collected for melanin quantitation, viability analysis and macroscopic/microscopic imaging analysis. For melanin quantitation, tissues were suspended in phosphate buffer saline (PBS) buffer (5 ml) for 5 min, removed from the PBS and washed/rinsed with additional PBS (2 ml). Tissues were treated with 1% sodium bicarbonate solution (300 ul) for 30 min, followed by removal of the sodium bicarbonate solution and washed/rinsed with PBS solution (2×2 ml). Tissues were suspended in Solvable reagent (500 ul) and incubated at 95° C. for 24 h along with melanin standard samples (prepared by suspending melanin (cat #M8631, Sigma-Aldrich) in Solvable reagent to generate melanin standards at 0, 2.5, 5, 10, 25, 50 and 100 ug). All incubated samples were centrifuged at 13000 rpm for 5 min and the optical density of the supernatant was read/determined at 490 nm. The amount of melanin (ug) from each tissue sample was determined from the melanin standard samples calibration curve. Protein concentration of tissue samples was determined using the BCA protein assay kit (Pierce) and melanin content was normalized and expressed as melanin (ug)/protein (ug) (Table 1). Tissue viability as a result of test compound dosing/feeding relative to negative and vehicle controls was determined using the WST-1 reagent kit (cat #05015944001, Roche). Tissue images were examined macroscopically to assess the skin lightening ability of test compounds compared to negative, vehicle and positive controls and microscopically (10× magnification) to assess cytotoxicity.

Compound	Melanin content / skin lightening effect (in words)	Melanin (μg/μg protein)
CC1CCC(NC(c2ccccc2)c2ccc(OC(C)C)cc2)CC1 (stereo not drawn) [Example 3, N-((4-isopropoxyphenyl)(phenyl)methyl)-4-methylcyclohexanamine]	reduced melanin content	0.144 +/− 0.006 μg/μg protein
CC(C)Oc1ccc(C(NC2CCC(CCO)CC2)c2ccccc2)cc1 (stereo not drawn) [Example 2, 2-(4-(((4-isopropoxyphenyl)(phenyl)methyl)amino)cyclohexyl)ethanol]	reduced melanin content	0.076 +/− 0.012 μg/μg protein
CC(C)Oc1ccc(C(NC2CCC(O)CC2)C2CCCCC2)cc1 (stereo not drawn) [Example 1, 4-((cyclohexyl(4-isopropoxyphenyl)methyl)amino)cyclohexanol]	reduced melanin content	0.158 +/− 0.006 μg/μg protein
